According to patent publication US10793568B2, “Hormone receptor modulators for treating metabolic conditions and disorders” (ARDELYX, INC., priority 2016, dated 2020):

How the values were obtained:
[1] = target: ligand binding domain of human FXR (Homo sapiens (Human), UniProt Q96RI1); assay: FXR ligand binding assay (LanthaScreen TR-FRET, SRC2-2 peptide recruitment); settings: for Emax: read-out: % Efficacy
[2] = target: human Farnesoid X receptor ligand-binding domain/Gal4 DNA binding domain chimera (Homo sapiens (Human), UniProt Q96RI1); assay: Cell-based assay of FXR activation (FXR-UAS-bla HEK 293T beta-lactamase reporter); settings: cellular FXR beta-lactamase reporter assay; for Emax: HEK-293T, read-out: % Efficacy
Chain of human Farnesoid X receptor ligand-binding domain/Gal4 DNA binding domain chimera (Q96RI1 262-486, change not shown): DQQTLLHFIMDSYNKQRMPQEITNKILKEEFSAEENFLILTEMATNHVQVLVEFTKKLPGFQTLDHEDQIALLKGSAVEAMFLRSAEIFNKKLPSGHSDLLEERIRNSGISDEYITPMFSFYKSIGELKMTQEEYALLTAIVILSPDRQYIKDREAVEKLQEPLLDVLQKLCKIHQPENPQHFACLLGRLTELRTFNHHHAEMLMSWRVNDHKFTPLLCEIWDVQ
Chain of human Farnesoid X receptor ligand-binding domain/Gal4 DNA binding domain chimera (P04386 1-147 partner): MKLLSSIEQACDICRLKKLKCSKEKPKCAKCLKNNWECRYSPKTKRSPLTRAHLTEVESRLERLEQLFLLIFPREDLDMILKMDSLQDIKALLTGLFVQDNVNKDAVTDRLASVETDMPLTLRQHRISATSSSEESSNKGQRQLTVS
In short: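 Readout is cleavage of the CCF4 FRET substrate (409 nm excitation, blue 447 nm signal) by beta-lactamase, expressed under UAS control after a Gal4–human FXR LBD chimera is activated in HEK 293T cells. Compounds were added as 3-fold dilutions for 16 h at 37 °C in 2% charcoal-stripped FBS medium. Curves were fit to a 3-parameter logistic equation to give pEC50, with % activation relative to GW4064.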

[3] = -log EC50, concentration required to produce 50% activation
[4] = extent of activation relative to GW4064
[5] = FXR-UAS-bla HEK 293T cells, 16 h, pEC50 = -log EC50

Chain of ligand binding domain of human FXR (Q96RI1 262-486): as the sequence (Q96RI1 262-486, change not shown) above

Compound | pEC50 [1, 3] | Emax [1, 4] | Emax [2, 4] | EC50 [2, 5] | % Efficacy [1, 4] | pEC50 [2, 5] | % Efficacy [2, 4] | EC50 [1, 3]
O=C(NS(=O)(=O)C1CC1)c1ccc(N2C[C@@H]3C[C@H]2C[C@H]3OCc2c(-c3c(Cl)cccc3Cl)noc2C2CC2)cc1F [Compound I-195, 4-((1S,4S,5R)-5-((5-cyclopropyl-3-(2,6-dichlorophenyl)isoxazol-4-yl)methoxy)-2-azabicyclo[2.2.1]heptan-2-yl)-N-(cyclopropylsulfonyl)-2-fluorobenzamide] | 8.8 | 144% | 109% | 0.316 nM | – | – | – | –
O=C(NS(=O)(=O)C1CC1)c1ccc(N2C[C@@H]3C[C@H]2C[C@H]3OCc2c(-c3c(Cl)cccc3Cl)noc2C2(F)CC2)cc1 [Compound I-196, N-(cyclopropylsulfonyl)-4-((1S,4S,5R)-5-((3-(2,6-dichlorophenyl)-5-(1-fluorocyclopropyl)isoxazol-4-yl)methoxy)-2-azabicyclo[2.2.1]heptan-2-yl)benzamide] | 8.5 | 154% | 110% | 0.794 nM | – | – | – | –
O=C(NS(=O)(=O)C1CC1)c1ccc(N2C[C@@H]3C[C@H]2C[C@H]3OCc2c(-c3c(Cl)cccc3Cl)noc2C2(F)CC2)c(F)c1 [Compound I-197, N-(cyclopropylsulfonyl)-4-((1S,4S,5R)-5-((3-(2,6-dichlorophenyl)-5-(1-fluorocyclopropyl)isoxazol-4-yl)methoxy)-2-azabicyclo[2.2.1]heptan-2-yl)-3-fluorobenzamide] | 8.5 | 167% | 111% | 0.501 nM | – | – | – | –
CCCS(=O)(=O)NC(=O)c1ccc(N2C[C@@H]3C[C@H]2C[C@H]3OCc2c(-c3c(Cl)cccc3Cl)noc2C2(F)CC2)c(F)c1 [Compound I-198, 4-((1S,4S,5R)-5-((3-(2,6-dichlorophenyl)-5-(1-fluorocyclopropyl)isoxazol-4-yl)methoxy)-2-azabicyclo[2.2.1]heptan-2-yl)-3-fluoro-N-(propylsulfonyl)benzamide] | 8.5 | 178% | 112% | 0.501 nM | – | – | – | –
O=C(NS(=O)(=O)C1CC1)c1ccc(N2C[C@@H]3C[C@H]2C[C@H]3OC(=O)c2c(-c3c(Cl)cccc3Cl)noc2C2(F)CC2)c(F)c1 [Compound I-199, (1S,4S,5R)-2-(4-((cyclopropylsulfonyl)carbamoyl)-2-fluorophenyl)-2-azabicyclo[2.2.1]heptan-5-yl 3-(2,6-dichlorophenyl)-5-(1-fluorocyclopropyl)isoxazole-4-carboxylate] | 7.4 | 146% | 110% | 10 nM | – | – | – | –
CCCS(=O)(=O)NC(=O)c1ccc(N2C[C@@H]3C[C@H]2C[C@H]3OCc2c(-c3ccccc3C(F)(F)F)noc2C2CC2)c(F)c1 [Compound I-200, 4-((1S,4S,5R)-5-((5-cyclopropyl-3-(2-(trifluoromethyl)phenyl)isoxazol-4-yl)methoxy)-2-azabicyclo[2.2.1]heptan-2-yl)-3-fluoro-N-(propylsulfonyl)benzamide] | 8.6 | 215% | 110% | 0.251 nM | – | – | – | –
O=C(NS(=O)(=O)C1CC1)c1ccc(N2C[C@@H]3C[C@H]2C[C@H]3OCc2c(-c3ccccc3C(F)(F)F)noc2C2CC2)c(F)c1 [Compound I-202, 4-((1S,4S,5R)-5-((5-cyclopropyl-3-(2-(trifluoromethyl)phenyl)isoxazol-4-yl)methoxy)-2-azabicyclo[2.2.1]heptan-2-yl)-N-(cyclopropylsulfonyl)-3-fluorobenzamide] | 8.5 | – | – | – | 215% | 9.4 | 114% | –
Cc1cccc(Cl)c1-c1noc(C2CC2)c1CO[C@@H]1C[C@@H]2C[C@H]1CN2c1ccc(C(=O)NS(=O)(=O)C2CCOCC2)cc1 [Compound I-203, 4-((1S,4S,5R)-5-((3-(2-chloro-6-methylphenyl)-5-cyclopropylisoxazol-4-yl)methoxy)-2-azabicyclo[2.2.1]heptan-2-yl)-N-((tetrahydro-2H-pyran-4-yl)sulfonyl)benzamide] | 9 | 157% | 102% | 0.158 nM | – | – | – | –
CCCS(=O)(=O)NC(=O)c1ccc(N2C[C@@H]3C[C@H]2C[C@H]3OCc2c(-c3c(Cl)cccc3Cl)noc2C2CC2)nc1 [Compound I-204, 6-((1S,4S,5R)-5-((5-cyclopropyl-3-(2,6-dichlorophenyl)isoxazol-4-yl)methoxy)-2-azabicyclo[2.2.1]heptan-2-yl)-N-(propylsulfonyl)nicotinamide] | 8.4 | 136% | 104% | 2.51 nM | – | – | – | –
O=C(NS(=O)(=O)C1CC1)c1ccc(N2C[C@@H]3C[C@H]2C[C@H]3OCc2c(-c3c(Cl)cccc3Cl)noc2C2CC2)nc1 [Compound I-205, 6-((1S,4S,5R)-5-((5-cyclopropyl-3-(2,6-dichlorophenyl)isoxazol-4-yl)methoxy)-2-azabicyclo[2.2.1]heptan-2-yl)-N-(cyclopropylsulfonyl)nicotinamide] | 8.4 | 142% | 104% | 10 nM | – | – | – | –
CCCS(=O)(=O)NC(=O)c1cnc(N2C[C@@H]3C[C@H]2C[C@H]3OCc2c(-c3c(Cl)cccc3Cl)noc2C2CC2)c(F)c1 [Compound I-206, 6-((1S,4S,5R)-5-((5-cyclopropyl-3-(2,6-dichlorophenyl)isoxazol-4-yl)methoxy)-2-azabicyclo[2.2.1]heptan-2-yl)-5-fluoro-N-(propylsulfonyl)nicotinamide] | 8.4 | 159% | 104% | 1.58 nM | – | – | – | –
O=C(NS(=O)(=O)C1CC1)c1cnc(N2C[C@@H]3C[C@H]2C[C@H]3OCc2c(-c3c(Cl)cccc3Cl)noc2C2CC2)c(F)c1 [Compound I-207, 6-((1S,4S,5R)-5-((5-cyclopropyl-3-(2,6-dichlorophenyl)isoxazol-4-yl)methoxy)-2-azabicyclo[2.2.1]heptan-2-yl)-N-(cyclopropylsulfonyl)-5-fluoronicotinamide] | 8.6 | 152% | 104% | 3.98 nM | – | – | – | –
CCCS(=O)(=O)NC(=O)c1ccc(N2C[C@@H]3C[C@H]2C[C@H]3OCc2c(-c3c(Cl)cccc3Cl)noc2C2(F)CC2)nc1 [Compound I-208, 6-[(1S,4S,5R)-5-[[3-(2,6-dichlorophenyl)-5-(1 I-fluorocyclopropyl)-1,2-oxazol-4-yl]methoxy]-2-azabicyclo[2.2.1]heptan-2-yl]-N-(propane-1-sulfonyl)pyridine-3-carboxamide] | – | 166% | 104% | 5.01 nM | – | – | – | 10 nM
O=C(NS(=O)(=O)C1CC1)c1ccc(N2C[C@@H]3C[C@H]2C[C@H]3OCc2c(-c3c(Cl)cccc3Cl)noc2C2(F)CC2)nc1 [Compound I-209, N-(cyclopropanesulfonyl)-6-[(1S,4S,5R)-5-{[3-(2,6-dichlorophenyl)-5-(1-fluorocyclopropyl)-1,2-oxazol-4-yl]methoxy}-2-azabicyclo[2.2.1]heptan-2-yl]pyridine-3-carboxamide] | 7.8 | 160% | 104% | 15.8 nM | – | – | – | –
O=C(NS(=O)(=O)CCO)c1ccc(N2C[C@@H]3C[C@H]2C[C@H]3OCc2c(-c3c(Cl)cccc3Cl)noc2C2CC2)cc1 [Compound I-210, 4-[(1S,4S,5R)-5-{[5-cyclopropyl-3-(2,6-dichlorophenyl)-1,2-oxazol-4-yl]methoxy}-2-azabicyclo[2.2.1]heptan-2-yl]-N-(2-hydroxyethanesulfonyl)benzamide] | 8.6 | 148% | – | < 31.6 nM | – | – | – | –
CC(=O)OCCS(=O)(=O)NC(=O)c1ccc(N2C[C@@H]3C[C@H]2C[C@H]3OCc2c(-c3c(Cl)cccc3Cl)noc2C2CC2)cc1 [Compound I-211, 2-[({4-[(1S,4S,5R)-5-{[5-cyclopropyl-3-(2,6-dichlorophenyl)-1,2-oxazol-4-yl]methoxy}-2-azabicyclo[2.2.1]heptan-2-yl]phenyl}formamido)sulfonyl]ethyl Acetate] | 8.4 | 152% | 105% | 1 nM | – | – | – | –
O=C(NS(=O)(=O)CCOC(=O)C1CC1)c1ccc(N2C[C@@H]3C[C@H]2C[C@H]3OCc2c(-c3c(Cl)cccc3Cl)noc2C2CC2)cc1 [Compound I-212, 2-[({4-[(1S,4S,5R)-5-{[5-cyclopropyl-3-(2,6-dichlorophenyl)-1,2-oxazol-4-yl]methoxy}-2-azabicyclo[2.2.1]heptan-2-yl]phenyl}formamido)sulfonyl]ethyl Cyclopropanecarboxylate] | 9.2 | 136% | 107% | 2.51 nM | – | – | – | –
CC(C)C(=O)OCCS(=O)(=O)NC(=O)c1ccc(N2C[C@@H]3C[C@H]2C[C@H]3OCc2c(-c3c(Cl)cccc3Cl)noc2C2CC2)cc1 [Compound I-213, 2-[({4-[(1S,4S,5R)-5-{[5-cyclopropyl-3-(2,6-dichlorophenyl)-1,2-oxazol-4-yl]methoxy}-2-azabicyclo[2.2.1]heptan-2-yl]phenyl}formamido)sulfonyl]ethyl 2-methylpropanoate] | 9.4 | 131% | – | < 31.6 nM | – | – | – | –
CC(=O)OCCCS(=O)(=O)NC(=O)c1ccc(N2C[C@@H]3C[C@H]2C[C@H]3OCc2c(-c3c(Cl)cccc3Cl)noc2C2CC2)cc1 [Compound I-214, 3-[({4-[(1S,4S,5R)-5-{[5-cyclopropyl-3-(2,6-dichlorophenyl)-1,2-oxazol-4-yl]methoxy}-2-azabicyclo[2.2.1]heptan-2-yl]phenyl}formamido)sulfonyl]propyl Acetate] | 8.6 | 138% | 105% | 2.51 nM | – | – | – | –
